Experimental data reported in publication PMC10052652 (Molecules, 2023).
Where “and” joins values, the source holds several entries; their conditions need not be identical. Equal entries are not always repeated. Where two headings read alike, the source gives them in different places.

How the values were obtained:
IGROV-1 cells = test: Cytotoxic activity, MTT assay, IGROV-1; details: for Cytotoxic activity against IGROV-1 (in words): at 100 µM; for IC50: Homo sapiens, IGROV-1, read-out: IC50 IGROV-1
Description: (§1) The cancer cell lines used in this study were HCT116 (colorectal carcinoma), IGROV1 (ovarian cancer), OVCAR3 (ovarian cancer), and MCF7 (mammary gland/breast cancer). […] Cell lines were maintained in culture and were incubated at 37 °C in an incubator with 5% CO2 in a humidified atmosphere. All tests were established at 80% of confluence, and viability was estimated with a trypan blue exclusion assay.
(§2) The cytotoxic activities of molecules against cancer cell lines were evaluated using an MTT assay. The MTT colorimetric assay was performed using 96-well plates. Cells were seeded in a 96-well plate, at a concentration of 10 × 10^3 cells/well for HCT116 and 12 × 10^3 cells/well for MCF7, IGROV1, and OVAR. Adherent cells were dispatched and incubated at 37 °C overnight in a 5% CO2-enriched atmosphere. Cells in the exponential growth phase were incubated at 37 °C for 72 h, with each tested sample at 50 µg/mL. After that, the medium was removed, and cells were treated with 50 µL of 3-(4,5-dimethylthazolk-2-yl)-2,5-diphenyl tetrazolium bromide (MTT) solution (3 mg/mL in PBS) at 37 °C for 20 to 40 min. To dissolve the […], we added 80 µL of 100% DMSO. Optical density was measured at 540 nm. All tests were established in triplicate. The anti-cancer effect of samples was estimated in terms of growth inhibition percentage.

[1] = DPPH radical scavenging assay; details: for DPPH Assay %: at 100 µM
Description: DPPH• (1-1-diphenyl 2-picryl hydrazyl) assay
This method is based on the spectrophotometric assay using the stable radical, DPPH•, as a reagent. First, 20 µL of each sample (4 mg/mL) was mixed with 180 µL of 0.1 mM DPPH• in methanol, in plates, after an incubation of 25 min in the dark. Absorbance was measured at 517 nm. Ascorbic acid was used as the reference compound. The radical-scavenging activities of molecules, expressed as a percentage inhibition of DPPH•, were calculated according to the following formula: Inhibition (%) = [(A control − A sample)/A control] × 100 where A is the absorbance determined at 517 nm. The absorbance of the solvent and DPPH• radical without the molecule was measured as the control.

α-amylase = target: T1, α-amylase (Homo sapiens, UniProt P04746); test: Anti-α-amylase activity (starch/DNS); details: for Anti α-Amylase %: at 100 µM
T1 sequence (P04746 16-511): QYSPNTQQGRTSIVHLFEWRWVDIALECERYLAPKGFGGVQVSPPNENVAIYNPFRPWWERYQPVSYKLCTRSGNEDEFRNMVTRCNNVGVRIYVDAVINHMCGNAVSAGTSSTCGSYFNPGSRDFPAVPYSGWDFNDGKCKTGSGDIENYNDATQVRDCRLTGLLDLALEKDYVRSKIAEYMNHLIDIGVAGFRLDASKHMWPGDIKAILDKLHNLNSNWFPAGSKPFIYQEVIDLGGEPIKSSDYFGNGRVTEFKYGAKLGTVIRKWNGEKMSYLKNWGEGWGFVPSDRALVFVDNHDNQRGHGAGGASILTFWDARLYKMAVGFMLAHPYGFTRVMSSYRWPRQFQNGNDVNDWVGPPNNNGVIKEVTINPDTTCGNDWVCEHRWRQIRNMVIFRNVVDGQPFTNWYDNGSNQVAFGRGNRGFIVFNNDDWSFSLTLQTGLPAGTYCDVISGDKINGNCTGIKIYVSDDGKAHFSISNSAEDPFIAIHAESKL
Description: The α-amylase inhibitory activity (%) value was defined as the percentage decrease in the maltose production rate over the control. […] After 15 min, this mixture was removed from the water bath and diluted with 900 µL of distilled water. The anti-α-amylase activity was determined by measuring the absorbance at 540 nm. Blank incubations were determined as the absorbance produced by samples where the enzyme was replaced with a buffer solution. […] The IC50 values were calculated from the mean values of the percentage of α--amylase inhibition data, determined in triplicate.

[2] = target: T2, superoxide dismutase (SOD) (Homo sapiens, UniProt P00441); test: biochemical
Description: Pyrogallol auto-oxidation due to oxygen in the air can be inhibited by an enzyme that is naturally present in the body: superoxide dismutase (SOD). Furthermore, variations in the pyrogallol auto-oxidation rate in the presence of SOD were evaluated. Tests were carried out in triplicate. The objective was to find an inhibitor of the auto-oxidation of pyrogallol in the presence of a SOD enzyme solution. Samples were tested at a concentration of 50 µg/mL, followed by incubation for 4 min at 25 °C. […] The self-oxidation of pyrogallol was evaluated in the absence of the enzyme. For this, 30 µL of pyrogallol was added to 120 µL of tris buffer (in place of the SOD) (pH 8.5), then followed by the same steps of incubating a positive control (without the molecule); this was performed in the presence of 5% of DMSO to evaluate the percentage of SOD inhibition activity on the auto-oxidation of pyrogallol.

HCT116 cells = test: Cytotoxic activity, MTT assay, HCT116; type: cell-based, human
Description: as §1
as §2, with “Cells in the exponential growth phase were incubated at 37 °C for 72 h, with each tested sample at 50 µg/mL.” left out, “The anti-cancer effect of samples was estimated in terms of growth inhibition percentage.” left out

SKOV-3 cells = test: Cytotoxic activity, MTT assay, SKOV-3; type: cell-based, human
[3] = target: acetylcholinesterase (AChE) (Homo sapiens, UniProt P22303); type: biochemical; details: at 100 µM
OVCAR-3 cells = test: Cytotoxic activity, MTT assay, OVCAR-3; type: cell-based; details: Homo sapiens, OVCAR-3, 72 h, read-out: IC50 OVCAR-3
Description: as §1
as §2, with “Cells in the exponential growth phase were incubated at 37 °C for 72 h, with each tested sample at 50 µg/mL.” left out, “The anti-cancer effect of samples was estimated in terms of growth inhibition percentage.” left out

[4] = target: T2, superoxide dismutase (SOD); type: biochemical; details: at 100 µM
[5] = Homo sapiens, HCT-116, 72 h, read-out: IC50 HCT116, MTT, 72 h
[6] = read-out: IC50 HCT116, MTT, 72 h
[7] = Homo sapiens, SK-OV-3, 72 h, read-out: IC50 SKOV-3, MTT, 72 h

T2 sequence (P00441 whole entry): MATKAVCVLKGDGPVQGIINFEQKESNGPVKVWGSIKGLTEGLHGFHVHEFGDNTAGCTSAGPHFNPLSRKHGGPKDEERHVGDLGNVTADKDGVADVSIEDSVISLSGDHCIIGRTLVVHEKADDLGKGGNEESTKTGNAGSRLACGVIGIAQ
Chain of acetylcholinesterase (AChE) (P22303 32-614, species assumed): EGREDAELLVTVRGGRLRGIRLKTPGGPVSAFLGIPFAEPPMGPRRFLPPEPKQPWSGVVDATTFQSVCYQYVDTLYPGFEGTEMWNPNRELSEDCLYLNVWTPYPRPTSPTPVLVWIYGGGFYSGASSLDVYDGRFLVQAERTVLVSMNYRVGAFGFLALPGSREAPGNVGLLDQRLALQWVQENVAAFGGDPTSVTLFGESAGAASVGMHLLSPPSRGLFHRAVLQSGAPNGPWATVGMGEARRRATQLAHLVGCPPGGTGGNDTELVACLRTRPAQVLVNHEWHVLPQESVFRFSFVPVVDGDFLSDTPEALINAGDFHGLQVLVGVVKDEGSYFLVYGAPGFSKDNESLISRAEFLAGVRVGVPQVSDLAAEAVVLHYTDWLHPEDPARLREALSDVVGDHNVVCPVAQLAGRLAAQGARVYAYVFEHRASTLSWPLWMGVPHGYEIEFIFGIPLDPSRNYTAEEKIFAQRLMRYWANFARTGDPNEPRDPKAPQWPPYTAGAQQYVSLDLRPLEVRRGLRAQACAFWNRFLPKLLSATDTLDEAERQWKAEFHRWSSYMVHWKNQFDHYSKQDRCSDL

| SMILES | Cytotoxic activity against IGROV-1 (in words) (IGROV-1 cells) | IC50 [1] [µM] | DPPH Assay % [1] | IC50 (α-amylase) [µM] | Anti α-Amylase % (α-amylase) [%] | IC50 ([2]; Anti SOD IC50) [µM] | IC50 (HCT116 cells; [5]) [µM] | IC50 (HCT116 cells; [6]) [µM] | IC50 (SKOV-3 cells; [7]) [µM] | Anti ACHE % [3] [%] | IC50 (OVCAR-3 cells) [µM] | Anti SOD % [4] | IC50 (IGROV-1 cells) [µM] | IC50 ([2]; read-out: Anti SOD IC50) [µM] | IC50 (SKOV-3 cells; read-out: IC50 SKOV-3, MTT, 72 h) [µM] |
| --- | --- | --- | --- | --- | --- | --- | --- | --- | --- | --- | --- | --- | --- | --- | --- |
| O=c1cc(-c2ccccc2)oc2cc(O)cc(O)c12 [Molecule M1, 5,7-dihydroxyflavone] | most active | > 100 | not active | 36.6 ± 0.2 | 59.7 ± 2.0 | > 100 | > 100 | > 50 | > 50 | 45.8 ± 1.3 | > 50 | 41.5 ± 1.8% |  |  |  |
| COc1ccc(-c2oc3c(CC=C(C)C)c(O[C@@H]4O[C@H](CO)[C@@H](O)[C@H](O)[C@H]4O)cc(O)c3c(=O)c2O[C@@H]2O[C@@H](C)[C@H](O)[C@@H](O)[C@H]2O)cc1 [Molecule M2, Icariin] | not active | > 100 |  | 14.1 ± 2.1 | 58.1 ± 2.2 |  | > 50 |  | > 50 | 19.3 ± 0.3 | > 50 | 61.7 ± 1.1% | > 100 | > 50 |  |
| O=c1cc(-c2ccccc2)oc2ccc(O)cc12 [Molecule M3, 6-hydroxyflavone] | most active | > 100 |  | 10.9 ± 0.1 | 90.3 ± 3.2 |  | > 100 | > 50 | > 100 |  | 44.7 ± 1.2 | 54.8 ± 3.2% |  | > 50 | > 50 |
| O=c1cc(-c2ccccc2)oc2cccc(O)c12 [Molecule M4, 5-hydroxyflavone] |  | > 100 |  | 37.9 ± 0.8 | 58.4 ± 1.4 | > 100 | > 100 | > 50 | > 50 |  | > 50 | 25.9 ± 2.5% |  |  |  |
| O=c1cc(-c2ccccc2)oc2cc(O)ccc12 [Molecule M5, 7-hydroxyflavone] | most active | > 100 |  | 1.2 ± 0.1 | 90.3 ± 3.2 |  | > 100 | > 50 | > 50 |  | > 50 | 74.3 ± 3.1% and 74.3 ± 3.02% |  | 36.5 ± 1.2 |  |
| O=c1cc(-c2ccccc2)oc2cc(O)c(O)c(O)c12 [Molecule M7, 5,6,7-trihydroxyflavone] |  | 5.2 ± 0.2 | 96.4 ± 0.1% | 3.4 ± 0.1 | 96.9 ± 1.7 | 36.5 ± 1.2 | 38.5 ± 1.3 |  | 15.6 ± 0.1 | 62.0 ± 1.9 | > 50 | 71.2 ± 2.3% |  | 31.5 ± 0.5 |  |
| O=c1cc(-c2cc(O)cc(O)c2)oc2ccccc12 [Molecule M8, 3′,5′-dihydroxyflavone] | most active | > 100 | 20.3 ± 4.1% | 14.9 ± 0.3 | 104.8 ± 3.5 |  | 33.1 ± 0.1 |  | > 50 | 49.3 ± 2.2 | > 50 | 52.3 ± 0.9% |  | > 50 |  |
| O=c1cc(-c2cccc(O)c2)oc2ccc3ccccc3c12 [Molecule M9, 3′-hydroxy-b-naphthoflavone] | not active | > 100 |  | 2 ± 0.2 | 86.6 ± 2.3 |  | > 50 |  | > 50 | 47.9 ± 4.0 | > 50 | 19.8 ± 2.9% | > 100 | > 100 |  |
| O=c1cc(-c2cccc(O)c2)oc2cc(O)ccc12 [Molecule M13, 7,3′-dihydroxyflavone] | most active | > 100 |  | 1.4 ± 0.1 | 91.7 ± 4.9 |  | 39.3 ± 0.8 |  | 42.1 ± 0.7 | 63.9 ± 3.3 | > 50 | 56.6 ± 1.7% |  | > 50 |  |
| COc1cc(-c2cc(=O)c3ccc4c(O)cccc4c3o2)cc(OC)c1OC [Molecule M18, 7-hydroxy-3′,4′,5′-trimethoxy-α-naphthoflavone] | not active | > 100 | 40.8 ± 0.6% | > 100 |  |  | 45 ± 0.9 |  | 37.3 ± 1 | 43.3 ± 1.8 | > 50 | 32.7 ± 3.9% | > 100 | > 100 |  |
